The test system of one series is granuloma. Nature of the series: Granuloma Test (Cotton Pellet Test). It is filed as in vivo, rat. The source says:
2. Granuloma Test (Cotton Pellet Test) [methodology as per R. Meier et al., Experientia 6, 469 (1950)]

For another series, the system named is rats. Nature of the series: Ulcer-Inducing Effect on rats. It is filed as in vivo. Particulars: rat. The source says:
4. Ulcer-Inducing Effect on rats [methodology according to W. J. R. Whittle, Brit. J. Pharmacol. 55, 242-3 (1975)].

The test system of the next series is Adjuvans Arthritis. Nature of the series: Adjuvans Arthritis Test, Rat, p.o. It is filed as in vivo. To be noted: 0.1 mg/kg p.o. The source says:
3. Adjuvans Arthritis Test, Rat, p.o. [methodology as per C. N. Pearson, Proc. Soc. Exp. Biol. 91, 95-101 (1956)].

For another series, the system named is Rat Paw Edema. Nature of the series: Rat Paw Edema Test. It is filed as in vivo. The source says: 1. Rat Paw Edema Test [methodology as per Hillebrecht, Arzneim.-Forsch (4), 607 (1954)].

`CCCCCC(=O)C=Cc1ccc(CCCCCCCCC(=O)OC)s1` [Example 5, 9-[5-(3-oxooct-1-enyl)thien-2-yl]nonanoic acid methyl ester]: the “Decrease in weight of granuloma (%)” value in the series on granuloma (rat dose 0.1 mg/kg per os) was -24%; in the series with granuloma (rat dose 1.0 mg/kg per os) it was -13%. Moreover, the Ulcer-inducing effect is reported as 0 with rats (in vivo, 1 mg/kg); 0 in the series on rats (in vivo, 10 mg/kg); 0 with rats (in vivo, 100 mg/kg). Also, the “Inhibiting effect (%)” value in the series on Adjuvans Arthritis (14th day p.i.) is given as -28%; with Adjuvans Arthritis (17th day p.i.), -35%; in the series with Rat Paw Edema (0.1 mg/kg per os), -26%; in the series with Rat Paw Edema (dose printed ".0" mg/kg per os), -38%.
On to `COc1ccc2c(c1)c(CC(=O)O)c(C)n2C(=O)c1ccc(Cl)cc1` [Indomethacin, indomethacin], for which the “Decrease in weight of granuloma (%)” value in the series on granuloma (rat dose 0.1 mg/kg per os) is given as -21%; with granuloma (rat dose 3.2 mg/kg per os), -27%. Also, the Ulcer-inducing effect result in the series with rats (3.2 mg/kg per os) is “++”; with rats (5.6 mg/kg per os) it was “+++”; in the series on rats (7.5 mg/kg per os), “+++”. Moreover, the “Inhibiting effect (%)” value with Adjuvans Arthritis (14th day p.i.) is reported as -29%; with Adjuvans Arthritis (17th day p.i.) it was -37%; with Rat Paw Edema (3.2 mg/kg per os), -25%; with Rat Paw Edema (5.6 mg/kg per os), -45%.
